Where two headings read alike, the source gives them in different places.
Legend:
5HT2B receptors = biological target: T1, 5HT2B receptors (Homo sapiens, UniProt P41595); test: Human 5-HT2B functional high throughput screening assay in CHO-K1 cells (calcium flux); assay type: cell-based; details: for EC50: CHO-K1 cells, calcium flux; for Emax: 5-HT2B, maximum functional response as percentage relative to the effect of serotonin
T1 construct: expressed in transfected cells; host or cells: CHO-K1 cells
T1 sequence (P41595 whole entry): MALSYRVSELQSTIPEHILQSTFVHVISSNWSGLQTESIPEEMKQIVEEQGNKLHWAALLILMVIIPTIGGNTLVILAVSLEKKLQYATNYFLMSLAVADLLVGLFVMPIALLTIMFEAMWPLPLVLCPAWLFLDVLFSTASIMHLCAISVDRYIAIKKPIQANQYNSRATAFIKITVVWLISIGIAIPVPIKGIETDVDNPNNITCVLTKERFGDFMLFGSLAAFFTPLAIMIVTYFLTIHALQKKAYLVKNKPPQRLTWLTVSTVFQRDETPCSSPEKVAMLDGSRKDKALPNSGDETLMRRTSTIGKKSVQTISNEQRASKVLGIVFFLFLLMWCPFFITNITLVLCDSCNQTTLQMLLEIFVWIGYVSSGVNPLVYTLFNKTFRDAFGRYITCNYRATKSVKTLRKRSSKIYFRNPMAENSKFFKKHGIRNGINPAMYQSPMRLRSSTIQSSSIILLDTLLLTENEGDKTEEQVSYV
Procedure, shortened: (§1)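 Serum-starved CHO-K1 cells carrying the receptor; Ca4 dye, 60 min RT. Test compound added after a 10 s baseline, fluorescence followed for 3 min. EC50 from 4-parameter fit; Emax given as % of serotonin effect.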

5HT2C receptors = biological target: T2, 5HT2C receptors (Homo sapiens, UniProt P28335); test: Human 5-HT2C functional high throughput screening assay in CHO-K1 cells (calcium flux); assay type: cell-based; set-up: expressed in transfected cells; host or cells: CHO-K1 cells; details: for EC50: CHO-K1 cells, calcium flux; for Emax: CHO-K1, 5-HT2C, maximum functional response as percentage relative to the effect of serotonin
T2 sequence (P28335 33-458): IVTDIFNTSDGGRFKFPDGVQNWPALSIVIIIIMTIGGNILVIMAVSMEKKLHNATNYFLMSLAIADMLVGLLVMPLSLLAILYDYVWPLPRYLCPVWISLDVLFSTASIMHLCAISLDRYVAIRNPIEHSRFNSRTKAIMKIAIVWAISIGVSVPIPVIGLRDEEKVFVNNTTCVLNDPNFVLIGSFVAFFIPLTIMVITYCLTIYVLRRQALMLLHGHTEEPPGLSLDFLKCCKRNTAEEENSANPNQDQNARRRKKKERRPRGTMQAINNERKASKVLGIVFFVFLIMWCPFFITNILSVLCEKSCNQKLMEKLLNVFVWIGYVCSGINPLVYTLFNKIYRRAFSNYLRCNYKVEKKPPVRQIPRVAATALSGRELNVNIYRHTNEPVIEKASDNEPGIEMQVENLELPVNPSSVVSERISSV
Procedure, shortened: as §1

[1] = 5-HT2B agonist activity, read-out: EC50
[2] = 5-HT2C agonist activity, read-out: EC50

EC50 (5HT2B receptors; [1]) [nM] | Emax (5HT2B receptors) | EC50 (5HT2C receptors; [2]) [nM] | Emax (5HT2C receptors; read-out: Emax) [%] | Emax (5HT2B receptors; CHO-K1, read-out: Emax) [%] | SMILES | Emax (5HT2C receptors) [%] | EC50 (5HT2B receptors; EC50, 5-HT2B agonist activity) [nM] | EC50 (5HT2C receptors; EC50, 5-HT2C agonist activity) [nM]
> 10000 | inactive | 0.8 | > 120 |  | CS(=O)(=O)c1cccc(-c2ccc3c(c2)C(=O)NC[C@@H]2CNC[C@@H]32)c1 (relative stereo) [Example 227, Trans-8-(3-(methylsulfonyl)phenyl)-1,2,3,3a,4,5-hexahydrobenzo[c]pyrrolo[3,4-e]azepin-6(10bH)-one] |  |  | 
> 10000 | inactive | 80 | > 120 |  | CN(C)C(=O)c1cccc(-c2ccc3c(c2)C(=O)NC[C@@H]2CNC[C@@H]32)c1 (relative stereo) [Example 230, N,N-Dimethyl-3-(trans-6-oxo-1,2,3,3a,4,5,6,10b-octahydrobenzo[c]pyrrolo[3,4-e]azepin-8-yl)benzamide] |  |  | 
> 10000 | inactive | 900 | 105 |  | CS(=O)(=O)c1ccccc1-c1ccc2c(c1)C(=O)NC[C@@H]1CNC[C@@H]21 (relative stereo) [Example 231, Trans-8-(2-(methylsulfonyl)phenyl)-1,2,3,3a,4,5-hexahydrobenzo[c]pyrrolo[3,4-e]azepin-6(10bH)-one] |  |  | 
> 10000 | inactive | 3 | > 120 |  | CC(=O)c1cccc(-c2ccc3c(c2)C(=O)NC[C@@H]2CN(C)C[C@@H]32)c1 (relative stereo) [Example 237, Trans-8-(3-acetylphenyl)-2-methyl-1,2,3,3a,4,5-hexahydrobenzo[c]pyrrolo[3,4-e]azepin-6(10bH)-one] |  |  | 
> 10000 | inactive | 0.7 | > 120 |  | CC(O)c1cccc(-c2ccc3c(c2)C(=O)NC[C@@H]2CN(C)C[C@@H]32)c1 (relative stereo) [Example 238, Trans-8-(3-(1-hydroxyethyl)phenyl)-2-methyl-1,2,3,3a,4,5-hexahydrobenzo[c]pyrrolo[3,4-e]azepin-6(10bH)-one] |  |  | 
2000 |  | 0.8 | > 120 | 20 | N#Cc1cccc(-c2ccc3c(c2)C(=O)NC[C@@H]2CNC[C@@H]32)c1 (relative stereo) [Example 239, 3-(Trans-6-oxo-1,2,3,3a,4,5,6,10b-octahydrobenzo[c]pyrrolo[3,4-e]azepin-8-yl)benzonitrile] |  |  | 
> 10000 | inactive | 10 | > 120 |  | CN1C[C@H]2CNC(=O)c3cc(-c4cccc(C#N)c4)ccc3[C@@H]2C1 (relative stereo) [Example 240, 3-(Trans-2-methyl-6-oxo-1,2,3,3a,4,5,6,10b-octahydrobenzo[c]pyrrolo[3,4-e]azepin-8-yl)benzonitrile] |  |  | 
> 10000 | inactive | 7 | > 120 |  | O=C1NC[C@@H]2CNC[C@H]2c2ccc(C3=CCOCC3)cc21 (relative stereo) [Example 241, Trans-8-(3,6-dihydro-2H-pyran-4-yl)-1,2,3,3a,4,5-hexahydrobenzo[c]pyrrolo[3,4-e]azepin-6(10bH)-one] |  |  | 
> 10000 | inactive | 8 | > 120 |  | O=C1CCc2ccc(-c3ccc4c(c3)C(=O)NC[C@@H]3CNC[C@@H]43)cc21 (relative stereo) [Example 247, Trans-8-(3-oxo-2,3-dihydro-1H-inden-5-yl)-1,2,3,3a,4,5-hexahydrobenzo[c]pyrrolo[3,4-e]azepin-6(10bH)-one] |  |  | 
> 10000 | inactive | 3 | 105 |  | CCS(=O)(=O)c1cccc(-c2ccc3c(c2)C(=O)NC[C@@H]2CNC[C@@H]32)c1 (relative stereo) [Example 250, Trans-8-(3-(ethylsulfonyl)phenyl)-1,2,3,3a,4,5-hexahydrobenzo[c]pyrrolo[3,4-e]azepin-6(10bH)-one] |  |  | 
> 10000 | inactive | 0.4 | > 120 |  | O=C1NC[C@@H]2CNC[C@H]2c2ccc(-c3cccc(CCO)c3)cc21 (relative stereo) [Example 252, Trans-8-(3-(2-hydroxyethyl)phenyl)-1,2,3,3a,4,5-hexahydrobenzo[c]pyrrolo[3,4-e]azepin-6(10bH)-one] |  |  | 
> 10000 | inactive | 7 | > 120 |  | CN1C[C@H]2CNC(=O)c3cc(-c4cccc(CCO)c4)ccc3[C@@H]2C1 (relative stereo) [Example 253, Trans-8-(3-(2-hydroxyethyl)phenyl)-2-methyl-1,2,3,3a,4,5-hexahydrobenzo[c]pyrrolo[3,4-e]azepin-6(10bH)-one] |  |  | 
60 |  | 20 | 120 | 40 | O=C1NC[C@@H]2CNC[C@H]2c2cc3ccccc3cc21 (relative stereo) [Example 257, Trans-1,2,3,3a,4,5-hexahydronaphtho[2,3-e]pyrrolo[3,4-e]azepin-6(12bH)-one] |  |  | 

The remaining lines, values behind:

SMILES | EC50 (5HT2B receptors; [1]) [nM] | Emax (5HT2B receptors) | EC50 (5HT2C receptors; [2]) [nM] | Emax (5HT2C receptors; read-out: Emax) [%] | Emax (5HT2B receptors; CHO-K1, read-out: Emax) [%] | Emax (5HT2C receptors) [%] | EC50 (5HT2B receptors; EC50, 5-HT2B agonist activity) [nM] | EC50 (5HT2C receptors; EC50, 5-HT2C agonist activity) [nM]
CN1C[C@H]2CNC(=O)c3cc(-c4ccccc4S(C)(=O)=O)ccc3[C@@H]2C1 (relative stereo) [Example 232, Trans-2-methyl-8-(2-(methylsulfonyl)phenyl)-1,2,3,3a,4,5-hexahydrobenzo[c]pyrrolo[3,4-e]azepin-6(10bH)-one] | > 10000 | inactive | 3000 | 30 |  |  |  | 
CC(=O)c1cccc(-c2ccc3c(c2)C(=O)NC[C@@H]2CNC[C@@H]32)c1.Cl (relative stereo) [Example 236, Trans-8-(3-acetylphenyl)-1,2,3,3a,4,5-hexahydrobenzo[c]pyrrolo[3,4-e]azepin-6(10bH)-one hydrochloride] | > 10000 | inactive | 0.3 |  |  | > 120 |  | 
CN1C[C@H]2CNC(=O)c3cc(C4=CCOCC4)ccc3[C@@H]2C1 (relative stereo) [Example 242, Trans-8-(3,6-dihydro-2H-pyran-4-yl)-2-methyl-1,2,3,3a,4,5-hexahydrobenzo[c]pyrrolo[3,4-e]azepin-6(10bH)-one] | > 10000 | inactive | 200 | > 120 |  |  |  | 
CN1C[C@H]2CNC(=O)c3cc(Oc4ccc(F)cc4)ccc3[C@@H]2C1 (relative stereo) [Example 243, Trans-8-(4-fluorophenoxy)-2-methyl-1,2,3,3a,4,5-hexahydrobenzo[c]pyrrolo[3,4-e]azepin-6(10bH)-one] | > 10000 | inactive | 60 | > 120 |  |  |  | 
CC(C)Cc1ccc2c(c1)C(=O)NC[C@@H]1CN(C)C[C@@H]21 (relative stereo) [Example 244, Trans-8-isobutyl-2-methyl-1,2,3,3a,4,5-hexahydrobenzo[e]pyrrolo[3,4-c]azepin-6(10bH)-one] |  | inactive |  |  |  | 80 | > 10000 | 100
CC1(C)CCC(Oc2ccc3c(c2)C(=O)NC[C@@H]2CNC[C@@H]32)CC1 (relative stereo) [Example 246, Trans-8-(4,4-dimethylcyclohexyloxy)-1,2,3,3a,4,5-hexahydrobenzo[e]pyrrolo[3,4-c]azepin-6(10bH)-one] |  | inactive |  |  |  | 100 | > 10000 | 40
CN1C[C@H]2CNC(=O)c3cc(-c4ccc5c(c4)C(=O)CC5)ccc3[C@@H]2C1 (relative stereo) [Example 251, Trans-2-methyl-8-(3-oxo-2,3-dihydro-1H-inden-5-yl)-1,2,3,3a,4,5-hexahydrobenzo[c]pyrrolo[3,4-e]azepin-6(10bH)-one] | > 10000 | inactive | 400 | > 120 |  |  |  | 
c1ccc(CN2C[C@H]3CCNc4ccccc4[C@@H]3C2)cc1 (relative stereo) [Example 254, Trans-2-benzyl-1,2,3,3a,4,5,6,10b-octahydrobenzo[b]pyrrolo[3,4-d]azepine] | 800 |  | 1000 | 105 | 30 |  |  | 
CCS(=O)(=O)c1cccc(-c2ccc3c(c2)C(=O)NC[C@@H]2CN(C)C[C@@H]32)c1 (relative stereo) [Example 255, Trans-8-(3-(ethylsulfonyl)phenyl)-2-methyl-1,2,3,3a,4,5-hexahydrobenzo[c]pyrrolo[3,4-e]azepin-6(10bH)-one] | > 10000 | inactive | 30 | 90 |  |  |  | 
O=C1NC[C@@H]2CN(Cc3ccccc3)C[C@H]2c2cc3ccccc3cc21 (relative stereo) [Example 256, Trans-2-benzyl-1,2,3,3a,4,5-hexahydronaphtho[2,3-c]pyrrolo[3,4-e]azepin-6(12bH)-one] | > 10000 | inactive | 100 | 90 |  |  |  | 
